Tests used:
[1] = biological target: T1, Epidermal growth factor receptor (Homo sapiens, UniProt P00533)
[2] = biological target: T1, Epidermal growth factor receptor; test: Inhibition of EGFR autophosphorylation in DiFi cells

T1 sequence (P00533 whole entry): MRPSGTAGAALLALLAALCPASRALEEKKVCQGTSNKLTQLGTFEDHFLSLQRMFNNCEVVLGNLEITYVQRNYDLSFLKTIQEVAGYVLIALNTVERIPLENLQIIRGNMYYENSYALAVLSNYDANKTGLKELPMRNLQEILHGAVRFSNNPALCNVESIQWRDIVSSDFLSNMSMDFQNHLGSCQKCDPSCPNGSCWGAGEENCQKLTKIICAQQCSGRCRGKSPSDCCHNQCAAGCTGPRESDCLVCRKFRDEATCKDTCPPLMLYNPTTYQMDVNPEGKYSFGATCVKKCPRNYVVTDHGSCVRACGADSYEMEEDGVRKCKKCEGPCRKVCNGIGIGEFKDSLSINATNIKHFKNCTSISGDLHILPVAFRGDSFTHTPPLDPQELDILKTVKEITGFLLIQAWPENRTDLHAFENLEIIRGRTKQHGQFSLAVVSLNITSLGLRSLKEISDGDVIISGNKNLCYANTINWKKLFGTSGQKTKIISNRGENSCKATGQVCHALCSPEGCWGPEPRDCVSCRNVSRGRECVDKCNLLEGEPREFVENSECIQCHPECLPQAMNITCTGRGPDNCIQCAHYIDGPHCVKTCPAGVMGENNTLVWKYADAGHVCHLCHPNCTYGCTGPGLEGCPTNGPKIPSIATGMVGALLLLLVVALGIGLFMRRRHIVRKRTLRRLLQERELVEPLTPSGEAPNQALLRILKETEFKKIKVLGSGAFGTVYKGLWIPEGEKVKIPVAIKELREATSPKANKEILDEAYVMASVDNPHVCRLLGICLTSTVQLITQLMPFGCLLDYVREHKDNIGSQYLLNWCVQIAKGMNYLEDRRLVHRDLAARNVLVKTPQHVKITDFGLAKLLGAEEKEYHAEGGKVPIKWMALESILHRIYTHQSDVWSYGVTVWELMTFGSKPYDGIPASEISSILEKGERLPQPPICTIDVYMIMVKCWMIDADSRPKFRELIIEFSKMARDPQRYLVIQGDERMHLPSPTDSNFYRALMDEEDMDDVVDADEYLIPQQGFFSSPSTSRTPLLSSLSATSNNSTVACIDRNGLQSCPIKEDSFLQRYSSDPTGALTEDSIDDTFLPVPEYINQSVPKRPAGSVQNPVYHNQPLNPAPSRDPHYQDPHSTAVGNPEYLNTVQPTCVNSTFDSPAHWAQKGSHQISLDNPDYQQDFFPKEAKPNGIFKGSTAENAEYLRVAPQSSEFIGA

Compound	IC50 [1] [µM]	IC50 [2] [µM]
CS(=O)(=O)Nc1ccc2c(c1)CNc1c(Nc3ccc(F)c(Cl)c3)ncnc1O2	> 10	
COc1cc2c(cc1OC)Oc1ncnc(Nc3ccc(F)c(Cl)c3)c1NC2	1.2	0.69
Nc1ccc2c(c1)CNc1c(Nc3cccc(Br)c3)ncnc1O2	1.7	> 30
Fc1ccc2c(c1)CNc1c(Nc3ccccc3)ncnc1O2	7	
FC(F)(F)Oc1ccc2c(c1)CNc1c(Nc3cccc(Br)c3)ncnc1O2	> 10	
Fc1ccc2c(c1)CNc1c(Nc3ccc(Cl)cc3)ncnc1O2	> 10	
C=CC(=O)Nc1ccc2c(c1)CNc1c(Nc3ccc(F)c(Cl)c3)ncnc1O2	4.9	8.9
COc1cc(OC)c2c(c1)Oc1ncnc(Nc3cccc(Br)c3)c1NC2	6.3	> 30
COc1ccc2c(c1)CNc1c(NCc3ccccc3)ncnc1O2	2	8.5
COc1ccc2c(c1)Oc1ncnc(Nc3cccc(Br)c3)c1NC2	3	1.9
Fc1ccc2c(c1)CNc1c(Nc3cccc(Br)c3)ncnc1O2	1.5	6.9
O=C(O)c1ccc2c(c1)CNc1c(Nc3cccc(Br)c3)ncnc1O2	1	> 30
COc1ccc2c(c1)CNc1c(Nc3ccc(Cl)cc3)ncnc1O2	5.8	
Fc1ccc(Nc2ncnc3c2NCc2cc(Cl)ccc2O3)cc1Cl	1	4.3
Nc1ccc2c(c1)CNc1c(Nc3ccc(F)c(Cl)c3)ncnc1O2	3.7	9.1
Fc1ccc(Nc2ncnc3c2NCc2cc(Br)ccc2O3)cc1Cl	2	8.4
Fc1ccc2c(c1)CNc1c(Nc3cccc(-c4ccccc4)c3)ncnc1O2	2	9.9

Compound	IC50 [1] [µM]	IC50 [2] [µM]
COc1ccc2c(c1)Oc1ncnc(Nc3ccc(F)c(Cl)c3)c1NC2	1	8.9
COc1ccc2c(c1)CNc1c(Nc3cccc(-c4ccccc4)c3)ncnc1O2	> 10	9.8
O=C(O)c1ccc2c(c1)CNc1c(Nc3ccc(F)c(Cl)c3)ncnc1O2	4.4	> 30
Clc1ccc2c(c1)CNc1c(Nc3cccc(Br)c3)ncnc1O2	3.4	> 30
Fc1ccc2c(c1)CNc1c(NCc3ccccc3)ncnc1O2	8.9	> 30
COc1cc2c(cc1OC)Oc1ncnc(Nc3cccc(Br)c3)c1NC2	0.34	0.47
C=CC(=O)Nc1ccc2c(c1)CNc1c(Nc3cccc(Br)c3)ncnc1O2	5.7	5.4
CS(=O)(=O)Nc1ccc2c(c1)CNc1c(Nc3cccc(Br)c3)ncnc1O2	4.1	7
COc1cccc2c1CNc1c(Nc3cccc(Br)c3)ncnc1O2	> 10	
Brc1ccc2c(c1)CNc1c(Nc3ccccc3)ncnc1O2	10	
COc1ccc2c(c1)CNc1c(Nc3ccccc3)ncnc1O2	7.5	
COc1ccc2c(c1)CNc1c(Nc3cccc(Br)c3)ncnc1O2	3.1	1
Brc1cccc(Nc2ncnc3c2NCc2cc(Br)ccc2O3)c1	1	7.2
Fc1ccc2c(c1)CNc1c(Nc3ccc(F)c(Cl)c3)ncnc1O2	1	7.2
Fc1ccc(Nc2ncnc3c2NCc2ccccc2O3)cc1Cl	1.1	2.7
COc1ccc2c(c1)CNc1c(Nc3ccc(F)c(Cl)c3)ncnc1O2	0.9	2.4

Reference: ChEMBL document CHEMBL1139019, “Tricyclic azepine derivatives: pyrimido[4,5-b]-1,4-benzoxazepines as a novel class of epidermal growth factor receptor kinase inhibitors” (Bioorg Med Chem Lett, 2006)
